The text below walks through data of patent publication US11999727B2 (Tango Therapeutics, Inc., priority 2020, dated 2024).

Assay [1] has as its target T1, PRMT5 (Homo sapiens, UniProt O14744).
T1 construct: purchased Viva (custom protein)
The assay is described as follows: PRMT5 biochemical IC50 assay with no cofactor. To be noted: PRMT5, no cofactor; read-out: No Cofactor/rel IC50. An excerpt: Table 1 indicates IC50 values (μM) against PRMT5 for exemplary compounds in the presence of SAM as cofactor, with no cofactor, and with MTA as cofactor, respectively (columns 4-6). […] Ki values can be calculated from the IC50 values as described in the Examples section. As detailed in the Examples section, for the assay performed in the presence of SAM, IC50=Ki×1.5 (Ki=IC50/1.5).

For assay [2], the system named is HAP1 MTAP-deleted cell line. The assay is described as follows: SDMA in-cell western assay, HAP1 MTAP-deleted. Format: cell-based. To be noted: for IC50: Homo sapiens; for MTAP intact/deleted ratio: IC50 ratio HAP1 MTAP-intact / HAP1 MTAP-deleted, SDMA in-cell western. The gist of the method:
(§1)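 Readout: in-cell western detection of SDMA. Cells: HAP1 expressing endogenous MTAP and an MTAP-null HAP1 counterpart. Output: IC50.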

Assay [3] deals with HAP1 MTAP-intact cell line. The assay can be described thus: SDMA in-cell western assay, HAP1 MTAP-intact. Format: cell-based. The note with it: Homo sapiens. The gist of the method: as §1
The target of assay [4] is T1, PRMT5. The assay is described as follows: PRMT5 biochemical IC50 assay with SAM as cofactor. The note with it: PRMT5, SAM as cofactor; read-out: SAM IC50.
Assay [5] relates to HAP1 MTAP-deleted cell line. The assay can be described thus: Viability assay, MTAP-deleted cell line. Format: cell-based. To be noted: Homo sapiens. An excerpt: Table 1 additionally indicates IC50 values in a viability assay for the MTAP-deleted cell line (column 10), indicating the effect of treatment with compound on cell survival.
In assay [6] the target is T1, PRMT5. The assay is described as follows: PRMT5 biochemical IC50 assay with MTA as cofactor. To be noted: PRMT5, MTA as cofactor; read-out: MTA IC50.
Where [7] appears, read: HAP1, read-out: HAP1 MTAP deleted IC50.
Setting [8] is: HAP1, read-out: MTAP HAP1 intact IC50.
[9] abbreviates: HAP1, read-out: HAP1 MTAP deleted viability.
Where [10] appears, read: HAP1, SDMA in-cell western, HAP1 MTAP-deleted, read-out: HAP1 MTAP deleted IC50.
[11] abbreviates: HAP1, SDMA in-cell western, HAP1 MTAP-intact, read-out: MTAP HAP1 intact IC50.
The mark [12] stands for this setting: HAP1, viability assay, MTAP-deleted cell line, read-out: HAP1 MTAP deleted viability.

Molecules are shown by their SMILES. Like-named read-outs stand apart in the source and are kept apart here. A value given as a limit tells only on which side of the number the result lay.

T1 sequence (O14744 whole entry): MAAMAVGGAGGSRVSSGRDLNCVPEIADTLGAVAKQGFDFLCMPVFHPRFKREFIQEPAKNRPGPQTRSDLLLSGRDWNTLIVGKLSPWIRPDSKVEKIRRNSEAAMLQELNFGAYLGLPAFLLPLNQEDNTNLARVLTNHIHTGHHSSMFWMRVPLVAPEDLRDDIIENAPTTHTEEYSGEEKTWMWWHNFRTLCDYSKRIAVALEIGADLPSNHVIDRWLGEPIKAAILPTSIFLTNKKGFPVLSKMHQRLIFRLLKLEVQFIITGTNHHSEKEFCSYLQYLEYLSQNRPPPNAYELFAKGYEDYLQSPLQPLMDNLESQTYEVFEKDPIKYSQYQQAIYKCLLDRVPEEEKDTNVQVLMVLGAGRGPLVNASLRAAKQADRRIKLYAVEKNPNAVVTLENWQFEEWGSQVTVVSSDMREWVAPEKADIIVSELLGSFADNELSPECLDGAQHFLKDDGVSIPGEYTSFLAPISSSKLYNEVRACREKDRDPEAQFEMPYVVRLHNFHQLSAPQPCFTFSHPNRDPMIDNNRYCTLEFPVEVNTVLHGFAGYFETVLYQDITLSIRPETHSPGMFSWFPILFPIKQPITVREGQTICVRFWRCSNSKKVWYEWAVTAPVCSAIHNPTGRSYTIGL
T1 sequence (Q9BQA1 whole entry partner): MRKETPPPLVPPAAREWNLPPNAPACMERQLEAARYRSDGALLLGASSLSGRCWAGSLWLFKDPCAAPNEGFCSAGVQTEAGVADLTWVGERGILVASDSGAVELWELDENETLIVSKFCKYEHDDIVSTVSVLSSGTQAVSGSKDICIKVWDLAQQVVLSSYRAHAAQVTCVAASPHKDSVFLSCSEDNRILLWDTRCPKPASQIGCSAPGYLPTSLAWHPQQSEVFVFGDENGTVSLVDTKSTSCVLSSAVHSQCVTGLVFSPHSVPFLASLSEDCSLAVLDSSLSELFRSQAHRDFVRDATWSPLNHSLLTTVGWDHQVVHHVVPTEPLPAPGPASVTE

On to `COc1ncc(NC(=O)C(=O)N2C[C@H](C)CC[C@@H]2c2ccccc2)cc1C(N)=O` (single isomer, unassigned) [Compound 308], for which the IC50 at PRMT5 [1] was greater than 500 nM; in assay [2] (setting [7]), 100 to 1000 nM; in assay [3] (setting [8]) it was greater than 1000 nM; on PRMT5 [4], 50 to 500 nM; in assay [5] (setting [9]) it was greater than 10000 nM; at PRMT5 [6], less than 50 nM. The MTAP intact/deleted ratio result in assay [2] is listed as “A (an IC50 ratio greater than or equal to 10 fold)”.

With `C[C@@H]1C[C@H](C)[C@@H](c2ccccc2)N(C(=O)C(=O)Nc2cncc(C(N)=O)c2)C1` (single isomer, unassigned) [Compound 311, 5-(2-(3,5-dimethyl-2-phenylpiperidin-1-yl)-2-oxoacetamido)nicotinamide], the IC50 was 50 to 500 nM on PRMT5 [1]; 100 to 1000 nM in assay [2] (setting [10]); greater than 1000 nM in assay [3] (setting [11]); 50 to 500 nM at PRMT5 [4]; greater than 10000 nM in assay [5] (setting [12]); less than 50 nM at PRMT5 [6]. The MTAP intact/deleted ratio entry in assay [2] is recorded as “A (an IC50 ratio greater than or equal to 10 fold)”.

On to `Cc1cc(NC(=O)C(=O)N2C[C@@H](C)[C@H](C)C[C@H]2c2ccccc2)cnc1N` (single isomer, unassigned) [Compound 313], for which the IC50 at PRMT5 [1] was 50 to 500 nM; in assay [2] (setting [10]) it was less than 100 nM; in assay [3] (setting [11]), greater than 1000 nM; on PRMT5 [4], 50 to 500 nM; in assay [5] (setting [12]) it was 1000 to 10000 nM; on PRMT5 [6], less than 50 nM. For the same compound, in assay [2], the MTAP intact/deleted ratio result is “A (an IC50 ratio greater than or equal to 10 fold)”.

Turning to `C[C@H]1CC[C@H](C2CCC(F)(F)CC2)N(C(=O)C(=O)Nc2cncc(C(N)=O)c2)C1` (single isomer, unassigned) [Compound 320], the IC50 at PRMT5 [1] is greater than 500 nM; in assay [2] (setting [10]) it was greater than 1000 nM; in assay [3] (setting [11]) it was greater than 1000 nM; at PRMT5 [4], 50 to 500 nM; in assay [5] (setting [12]), greater than 10000 nM; on PRMT5 [6], 50 to 500 nM. Moreover, the MTAP intact/deleted ratio entry in assay [2] was “B (an IC50 ratio greater than or equal to 3 fold but lower than 10 fold)”.

For `Cc1cc([C@@H]2CC[C@@H](C)CN2C(=O)C(=O)Nc2cncc(C(N)=O)c2)ccc1O` (single isomer, unassigned) [Compound 323], the IC50 is less than 50 nM at PRMT5 [1]; less than 100 nM in assay [2] (setting [10]); 100 to 1000 nM in assay [3] (setting [11]); 50 to 500 nM at PRMT5 [4]; less than 1000 nM in assay [5] (setting [12]); less than 50 nM at PRMT5 [6]. Further, the MTAP intact/deleted ratio result in assay [2] is given as “A (an IC50 ratio greater than or equal to 10 fold)”.

With `CC(=O)N1CCC(c2cccc([C@H]3CC[C@H](C)CN3C(=O)C(=O)Nc3cnc(N)c(C)c3)c2)CC1` (single isomer, unassigned) [Compound 324], the IC50 at PRMT5 [1] is less than 50 nM; in assay [2] (setting [10]) it was less than 100 nM; in assay [3] (setting [11]) it was 100 to 1000 nM; on PRMT5 [4], 50 to 500 nM; in assay [5] (setting [12]), less than 1000 nM; at PRMT5 [6], less than 50 nM. In addition, the MTAP intact/deleted ratio result in assay [2] was “A (an IC50 ratio greater than or equal to 10 fold)”.

For `C[C@@H]1CC[C@@H](c2ccc3c(c2)C[C@@H](C)O3)N(C(=O)C(=O)Nc2cncc(C(N)=O)c2)C1` (single isomer, unassigned) [Compound 329], the IC50 is 50 to 500 nM at PRMT5 [1]; less than 100 nM in assay [2] (setting [10]); greater than 1000 nM in assay [3] (setting [11]); 50 to 500 nM at PRMT5 [4]; 1000 to 10000 nM in assay [5] (setting [12]); less than 50 nM at PRMT5 [6]. The MTAP intact/deleted ratio result in assay [2] was “A (an IC50 ratio greater than or equal to 10 fold)”.

For `COc1ncc(NC(=O)C(=O)N2C[C@H](C)CC[C@H]2c2ccccc2)cc1C(N)=O` (single isomer, unassigned) [Compound 333], the IC50 at PRMT5 [1] is less than 50 nM; in assay [2] (setting [7]) it was less than 100 nM; in assay [3] (setting [8]), greater than 1000 nM; on PRMT5 [4] it was 50 to 500 nM; in assay [5] (setting [9]), less than 1000 nM; at PRMT5 [6] it was less than 50 nM. Moreover, the MTAP intact/deleted ratio result in assay [2] is on record as “A (an IC50 ratio greater than or equal to 10 fold)”.

`CNc1cccc([C@@H]2CCCCN2C(=O)C(=O)Nc2cncc(C(N)=O)c2)c1` (single isomer, unassigned) [Compound 334]: the IC50 was 50 to 500 nM at PRMT5 [1]; less than 100 nM in assay [2] (setting [10]); greater than 1000 nM in assay [3] (setting [11]); 50 to 500 nM at PRMT5 [4]; 1000 to 10000 nM in assay [5] (setting [12]); less than 50 nM on PRMT5 [6]. The MTAP intact/deleted ratio result in assay [2] is on record as “A (an IC50 ratio greater than or equal to 10 fold)”.

Turning to `Cc1cc([C@@H]2CC[C@@H](C)CN2C(=O)C(=O)Nc2cncc(C(N)=O)c2)cc(C)c1O` (single isomer, unassigned) [Compound 335], the IC50 is 50 to 500 nM at PRMT5 [1]; less than 100 nM in assay [2] (setting [10]); greater than 1000 nM in assay [3] (setting [11]); 50 to 500 nM at PRMT5 [4]; 1000 to 10000 nM in assay [5] (setting [12]); less than 50 nM at PRMT5 [6]. Further, the MTAP intact/deleted ratio result in assay [2] is recorded as “A (an IC50 ratio greater than or equal to 10 fold)”.

As for `Cc1cc(NC(=O)C(=O)N2C[C@H](C)C[C@@H](C)[C@H]2c2ccccc2)cnc1N` (single isomer, unassigned) [Compound 339], the IC50 at PRMT5 [1] is 50 to 500 nM; in assay [2] (setting [10]) it was 100 to 1000 nM; in assay [3] (setting [11]), greater than 1000 nM; on PRMT5 [4] it was 50 to 500 nM; in assay [5] (setting [12]), greater than 10000 nM; at PRMT5 [6] it was less than 50 nM. In addition, the MTAP intact/deleted ratio entry in assay [2] is “A (an IC50 ratio greater than or equal to 10 fold)”.

For `Cc1cc(NC(=O)C(=O)N2CCCC[C@H]2C2CCCC2)cnc1N` (single isomer, unassigned) [Compound 340], the IC50 at PRMT5 [1] was 50 to 500 nM; in assay [2] (setting [10]) it was 100 to 1000 nM; in assay [3] (setting [11]), greater than 1000 nM; at PRMT5 [4], 50 to 500 nM; in assay [5] (setting [12]) it was 1000 to 10000 nM; at PRMT5 [6] it was less than 50 nM. The MTAP intact/deleted ratio result in assay [2] is reported as “A (an IC50 ratio greater than or equal to 10 fold)”.

Take `C[C@@H]1CC[C@@H](c2ccc3c(c2)C[C@H](C)O3)N(C(=O)C(=O)Nc2cncc(C(N)=O)c2)C1` (single isomer, unassigned) [Compound 345]: the IC50 was 50 to 500 nM on PRMT5 [1]; 100 to 1000 nM in assay [2] (setting [10]); greater than 1000 nM in assay [3] (setting [11]); 50 to 500 nM at PRMT5 [4]; 1000 to 10000 nM in assay [5] (setting [12]); less than 50 nM at PRMT5 [6]. Moreover, in assay [2], the MTAP intact/deleted ratio result is “A (an IC50 ratio greater than or equal to 10 fold)”.

As for `CC(=O)N1CCC(c2cccc([C@@H]3CC[C@@H](C)CN3C(=O)C(=O)Nc3cncc(C(N)=O)c3)c2)CC1` (single isomer, unassigned) [Compound 346], the IC50 was 50 to 500 nM on PRMT5 [1]; 100 to 1000 nM in assay [2] (setting [10]); greater than 1000 nM in assay [3] (setting [11]); 50 to 500 nM on PRMT5 [4]; 1000 to 10000 nM in assay [5] (setting [12]); less than 50 nM at PRMT5 [6]. For the same compound, the MTAP intact/deleted ratio result in assay [2] is “A (an IC50 ratio greater than or equal to 10 fold)”.
